Earlier results, collected in patent publication US20080306069A1, “Pyrazole Derivatives for the Inhibition of CDK'S and GSK'S” (ASTEX THERAPEUTICS LIMITED, priority 2005, published 2008).

System: malignant cells from B-cell chronic lymphocytic leukemia (B-CLL)
Details: in vitro

| Compound | apoptosis of malignant B-CLL cells |
| --- | --- |
| CC[C@H](CO)Nc1nc(NCc2ccccc2)c2ncn(C(C)C)c2n1 [CYC 202] | induce in vitro apoptosis |
| CN1CC[C@H](c2c(O)cc(O)c3c(=O)cc(-c4ccccc4Cl)oc23)[C@H](O)C1 [Flavopiridol, flavopiridol] | induce in vitro apoptosis |
